In patent US10752900B2, “Oligonucleotides for modulating gene expression and uses thereof” (BIOGENERA S.P.A., priority 2012, dated 2020):

Key:
Type in all cases: cell-based, human
MYCN gene [1] = test: QT-PCR, MYCN mRNA in RH30 cells; conditions: Table 9, siRNA and siRNA gapmer used at 200 nM with Lipofectamine 2000
Description: For the purpose of assessing the ability of the oligonucleotides of the present invention to modulate the expression of the target genes, their ability to reduce the quantity of messenger RNA was analyzed using the Real-Time PCR technique. For this purpose, use was made of 24-well plates, which were seeded with 5.0×10^4 cells with 0.3 ml of OPTI-MEM (GIBCO BRL) medium, 4% FBS and 2 mM L-glutammine (experiments in triplicate) per well. The cells were incubated for 24 hours at 37° C., in an atmosphere containing 5% CO2 to permit adherence to the base of the wells. Each oligonucleotide analyzed, except for the PNA oligonucleotides, was incubated beforehand with 2 μl of Lipofectamine 2000 (Invitrogen), with 0.3 mL of serum-free OPTI-MEM (GIBCO BRL) medium. For each well, the oligonucleotides were analyzed at the following final concentrations: • the antisense oligonucleotides siRNA and siRNA gapmer (i.e. the oligonucleotides containing one or more monomers of chemically modified nucleic acids at the 3' or 5' end, while in the central portion they have monomers of nucleic acids that have not been modified or have been modified at the level of the phosphodiester bond as a phosphorothioate bond) were used at 200 nM; • the antisense oligonucleotides containing phosphorothioate DNA monomers, the RNA antigene oligonucleotides (agRNA) and the oligonucleotides containing DNA monomers and LNA monomers were used at 10 μM; • the morpholino oligonucleotides were used at a concentration of 1 μM, and • the PNA oligonucleotides were administered at a concentration of 1 μM. The cells were treated with the oligonucleotides, adding FBS up to 4% 6 hours after administration of the same. After 24 hours the total RNA was extracted from each well and purified using the RNeasy Mini Kit (QIAGEN). Assays were performed on 8 cell lines obtained from 5 different human tumours which are correlated with MYCN expression, i.e.: • as a neuroblastoma model use was made of the cell lines Kelly, IMR-32 (where the MYCN gene is amplified and superexpressed) and SKNBE2c and LAN1 (where the MYCN gene is amplified and superexpressed and the p53 gene is mutated); • as a rabdomiosarcoma model use was made of the cell line RH30, where the MYCN gene is amplified and superexpressed; • as a Wilms' tumour model use was made of the cell line WiT49, where the MYCN gene is amplified and superexpressed; • as a retinoblastoma model use was made of the cell line Y79, where the MYCN gene is amplified and superexpressed; and • as a model of small cell lung cancer use was made of the cell line H69 where the MYCN gene is amplified and superexpressed. As a control, use was made of the same cell lines as listed above treated with sterile water instead of oligonucleotides. Each RNA sample was quantified (in duplicate) using a NanoDrop ND-1000 spectrophotometer (NanoDrop Technologies). The first strand of cDNA was produced using the cDNA Synthesis Kit for RT-PCR (Roche). For the cDNA synthesis reaction a total of 1 μg of RNA was used. For the real-time PCR, 10 ng of cDNA in a final volume of 20 μl was used with SYBR Green Master Mix 2× (Applied Biosystems) (3 identical experiments were conducted in triplicate). Two housekeeping genes were used as positive controls: GAPDH and beta-actin (ACTB). The conditions of the QT-PCR reaction were: 10 min at 95° C., 20 sec at 95° C., and 30 sec at 60° C., for 50 cycles. The PNAs having SEQ ID NO: 1-12 were also tested on different cell lines which overexpress MYCN (Kelly, SKNBE2c, RH30, […] 1 and H69). The results are shown in Table 6 and confirm the selectivity and specificity of the inhibition effect of the PNAs on the product of protein translation of the MYCN gene. Chimeric oligonucleotides comprising DNA monomers and LNA monomers and having the MYCN gene as their target were tested in vitro on alveolar rabdomyosarcoma cells (RH30). […]

[2] = tested on: rabdomyosarcoma cells (RH30); test: Cellular proliferation assay (ATP-Lite), RH30 cells; conditions: Table 9, siRNA and siRNA gapmer used at 200 nM
Description: For the purpose of assessing the gene modulation ability of the oligonucleotides of the present invention, the effect of their administration on cell viability was determined. For this purpose 5×10^3 cells per well were seeded into 96-well cell culture plates (experiments conducted in triplicate) with 100 μl of OPTI-MEM (GIBCO BRL) medium containing 4% FBS and 2 mM of L-glutammine. The PNA oligonucleotides were administered at different concentrations (1 μM-2.5 μM-5 μM-10 μM) in order to observe a dose-effect relationship. As regards all the other oligonucleotides, the concentrations at which they administered are listed in the paragraph: The viability of the treated cells was determined at 48, 72, 96 and 168 hours after treatment. Cell viability was assessed by means of an ATP-Lite assay (Luminescence ATP Detection Assay System, PerkinElmer) and is reported as the ratio between the average signal of the treated wells compared to the average value of the wells of untreated control cells. The cells were processed following the instructions provided with the kit. The assays were performed on the same cell lines used to determine the levels of the MYCN gene messenger and listed in the paragraph: Treatments with Oligonucleotides-QT-PCR. The PNAs having SEQ ID NO: 1-12 were also tested on different cell lines which overexpress MYCN (Kelly, SKNBE2c, RH30, […] 1 and H69). The results are shown in Table 6 and confirm the selectivity and specificity of the inhibition effect of the PNAs on the product of protein translation of the MYCN gene. Chimeric oligonucleotides comprising DNA monomers and LNA monomers and having the MYCN gene as their target were tested in vitro on alveolar rabdomyosarcoma cells (RH30). […] The antisense oligonucleotides designed and synthesized by the Applicant according to the parameters described in the present invention were analyzed in vitro on rabdomyosarcoma cells (RH30).

MYCN gene [3] = test: QT-PCR, MYCN mRNA in Kelly cells; design: mRNA Inhibition (%)(Kelly): concentration or dose not given beside the values; conditions: for mRNA Inhibition (%)(Kelly): Table 7, SEQ ID NO: 5 and guanine-group mutants
Description: For the purpose of assessing the ability of the oligonucleotides of the present invention to modulate the expression of the target genes, their ability to reduce the quantity of messenger RNA was analyzed using the Real-Time PCR technique.
For this purpose, use was made of 24-well plates, which were seeded with 5.0×10^4 cells with 0.3 ml of OPTI-MEM (GIBCO BRL) medium, 4% FBS and 2 mM L-glutammine (experiments in triplicate) per well.
The cells were incubated for 24 hours at 37° C., in an atmosphere containing 5% CO2 to permit adherence to the base of the wells.
Each oligonucleotide analyzed, except for the PNA oligonucleotides, was incubated beforehand with 2 μl of Lipofectamine 2000 (Invitrogen), with 0.3 mL of serum-free OPTI-MEM (GIBCO BRL) medium.
For each well, the oligonucleotides were analyzed at the following final concentrations: • the antisense oligonucleotides siRNA and siRNA gapmer (i.e. the oligonucleotides containing one or more monomers of chemically modified nucleic acids at the 3′ or 5′ end, while in the central portion they have monomers of nucleic acids that have not been modified or have been modified at the level of the phosphodiester bond as a phosphorothioate bond) were used at 200 nM; • the antisense oligonucleotides containing phosphorothioate DNA monomers, the RNA antigene oligonucleotides (agRNA) and the oligonucleotides containing DNA monomers and LNA monomers were used at 10 μM; • the morpholino oligonucleotides were used at a concentration of 1 μM, and • the PNA oligonucleotides were administered at a concentration of 1 μM.
The cells were treated with the oligonucleotides, adding FBS up to 4% 6 hours after administration of the same. After 24 hours the total RNA was extracted from each well and purified using the RNeasy Mini Kit (QIAGEN).
Assays were performed on 8 cell lines obtained from 5 different human tumours which are correlated with MYCN expression, i.e.: • as a neuroblastoma model use was made of the cell lines Kelly, IMR-32 (where the MYCN gene is amplified and superexpressed) and SKNBE2c and LAN1 (where the MYCN gene is amplified and superexpressed and the p53 gene is mutated); • as a rabdomiosarcoma model use was made of the cell line RH30, where the MYCN gene is amplified and superexpressed; • as a Wilms' tumour model use was made of the cell line WiT49, where the MYCN gene is amplified and superexpressed; • as a retinoblastoma model use was made of the cell line Y79, where the MYCN gene is amplified and superexpressed; and • as a model of small cell lung cancer use was made of the cell line H69 where the MYCN gene is amplified and superexpressed.
As a control, use was made of the same cell lines as listed above treated with sterile water instead of oligonucleotides. Each RNA sample was quantified (in duplicate) using a NanoDrop ND-1000 spectrophotometer (NanoDrop Technologies). The first strand of cDNA was produced using the cDNA Synthesis Kit for RT-PCR (Roche). For the cDNA synthesis reaction a total of 1 μg of RNA was used. For the real-time PCR, 10 ng of cDNA in a final volume of 20 μl was used with SYBR Green Master Mix 2× (Applied Biosystems) (3 identical experiments were conducted in triplicate). Two housekeeping genes were used as positive controls: GAPDH and beta-actin (ACTB).
The conditions of the QT-PCR reaction were: 10 min at 95° C., 20 sec at 95° C., and 30 sec at 60° C., for 50 cycles.
(§1) As far as the PNA oligonucleotides are concerned, the results regarding their ability to inhibit the transcription of the MYCN gene and proliferation of Kelly cells are shown in Table 1.
The oligonucleotides were tested in vitro (at a concentration of 2.5 μM) to determine their ability to inhibit the transcription of the gene they are directed against by measuring the levels of the gene messenger in cellular models in which the gene of interest is overexpressed. The methods used are the ones described in example 1. […]

Kelly cells = test: Cellular proliferation assay (ATP-Lite), Kelly cells; conditions: Table 7, SEQ ID NO: 5 and guanine-group mutants
Description: For the purpose of assessing the gene modulation ability of the oligonucleotides of the present invention, the effect of their administration on cell viability was determined.
For this purpose 5×10^3 cells per well were seeded into 96-well cell culture plates (experiments conducted in triplicate) with 100 μl of OPTI-MEM (GIBCO BRL) medium containing 4% FBS and 2 mM of L-glutammine.
The PNA oligonucleotides were administered at different concentrations (1 μM-2.5 μM-5 μM-10 μM) in order to observe a dose-effect relationship.
As regards all the other oligonucleotides, the concentrations at which they administered are listed in the paragraph:
The viability of the treated cells was determined at 48, 72, 96 and 168 hours after treatment.
Cell viability was assessed by means of an ATP-Lite assay (Luminescence ATP Detection Assay System, PerkinElmer) and is reported as the ratio between the average signal of the treated wells compared to the average value of the wells of untreated control cells. The cells were processed following the instructions provided with the kit.
The assays were performed on the same cell lines used to determine the levels of the MYCN gene messenger and listed in the paragraph: Treatments with Oligonucleotides—QT-PCR.
as §1
The ability of the tested oligonucleotides to inhibit the messenger of the gene of interest was measured and the proliferative capacity of the cells following administration of the oligonucleotides was also assessed.

Q: Which “mRNA inhibition (%)” value (MYCN gene [1]) does the source give for “SEQ ID NO: 26: double-stranded siRNA against MYCN, sense UGAAGAUGAUGAAGAGGAA, antisense SEQ ID NO: 57 (antisense UUCCUCUUCAUCAUCUUCA; listed as RNA, chemistry not given here)” here?
A: 82%

Q: What about the “Cell Prolif. (%)” value [2] of the same substance?
A: 28%

Q: “SEQ ID NO: 35: double-stranded chimeric RNA / LNA siRNA against MYCN, sense GAGGAAGAUGAAGAGGAAGTT, antisense SEQ ID NO: 64 (antisense CUUCCUCUUCAUCUUCCUCTT; RNA with some LNA monomers, positions not given here)” was tested. Which “mRNA inhibition (%)” value (MYCN gene [1]) did it give?
A: 34%

Q: And the “Cell Prolif. (%)” value [2]?
A: 68%

Q: What does the source list for “SEQ ID NO: 43: PNA GCTGAGTCGATGCGTG, SEQ ID NO: 5 with all groups of consecutive guanines mutated (all peptide nucleic acid (PNA); antigene PNA, 3' carrier peptide conjugation not given here per molecule)”?
A: mRNA Inhibition (%)(Kelly) (MYCN gene [3]): 0%; inhibitory activity (MYCN gene [3]; all groups of consecutive guanines of SEQ ID NO: 5 mutated): inhibitory activity of the PNAs to be lost; (Kelly) Cell Prolif. % (Kelly cells): 100%

Q: What does the source list for “SEQ ID NO: 44: PNA GCTGAGTGGATGCGTG, modified SEQ ID NO: 5 with groups of consecutive guanines mutated (all peptide nucleic acid (PNA); antigene PNA, 3' carrier peptide conjugation not given here per molecule)”?
A: mRNA Inhibition (%)(Kelly) (MYCN gene [3]): 25%; (Kelly) Cell Prolif. % (Kelly cells): 89%

Q: What does the source list for “SEQ ID NO: 45: PNA GCTGGGTCGATGCGGG, modified SEQ ID NO: 5 with a group of consecutive guanines mutated (all peptide nucleic acid (PNA); antigene PNA, 3' carrier peptide conjugation not given here per molecule)”?
A: mRNA Inhibition (%)(Kelly) (MYCN gene [3]): 47%; (Kelly) Cell Prolif. % (Kelly cells): 69%

Q: “SEQ ID NO: 46: PNA GTTGGGTGGATGTGGG, modified SEQ ID NO: 5 (all peptide nucleic acid (PNA); antigene PNA, 3' carrier peptide conjugation not given here per molecule)” was tested. Which “mRNA Inhibition (%)(Kelly)” value (MYCN gene [3]) did it give?
A: 58%

Q: And the “(Kelly) Cell Prolif. %” value (Kelly cells)?
A: 60%
